Data taken from PubChem BioAssay (NCI).
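96-well plates; 48 h exposure; 5 concentrations. Endpoints by linear interpolation between flanking doses. Not reached: highest tested concentration assigned. TGI marks complete inhibition of growth.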

What was measured:
Experiment in all cases: NCI tumour cell line growth inhibition, 48 h
IGROV1 ovarian = test system: IGROV1 ovarian
OVCAR-4 ovarian = test system: OVCAR-4 ovarian
T-47D breast = test system: T-47D breast
SR leukemia = test system: SR leukemia
MDA-MB-231 breast = test system: MDA-MB-231 breast
SF-295 CNS = test system: SF-295 CNS
MALME-3M melanoma = test system: MALME-3M melanoma
SN12C renal = test system: SN12C renal
SK-MEL-5 melanoma = test system: SK-MEL-5 melanoma
HL-60(TB) leukemia = test system: HL-60(TB) leukemia

Row | Compound | TGI (IGROV1 ovarian) | TGI (OVCAR-4 ovarian) | TGI (T-47D breast) | TGI (SR leukemia) | TGI (MDA-MB-231 breast) | TGI (SF-295 CNS) | TGI (MALME-3M melanoma) | TGI (SN12C renal) | TGI (SK-MEL-5 melanoma) | TGI (HL-60(TB) leukemia)
1 | CC(C)[Si](Oc1ccc(CC2N(C(=O)c3ccc([N+](=O)[O-])cc3)C(CCc3ccccc3)CC2(C)C=O)cc1)(C(C)C)C(C)C (stereo not drawn) | > 100 µM | > 100 µM | > 100 µM | > 100 µM | 95.5 µM | > 100 µM | > 100 µM |  |  | 
2 | S=C1NNC2(C(=S)N1)c1ccccc1-c1ccccc12 | > 10 µM | > 10 µM | > 10 µM | > 10 µM | > 10 µM |  | > 10 µM | > 10 µM | > 10 µM | > 10 µM
3 | COC(=O)C1Cc2cc3c(cc2C1)CCC3 | > 100 µM | > 100 µM | > 100 µM | > 100 µM | > 100 µM | > 100 µM | > 100 µM | > 100 µM | > 100 µM | > 100 µM
4 | CC(C)C(=O)/C=C/c1c(Cl)cccc1Cl | 14.2 µM | 9.4 µM | 9.31 µM | > 100 µM | 8.94 µM | 24.3 µM | 17.9 µM | 13.6 µM | 18.2 µM | > 100 µM
5 | C=CCOCn1cnc2c(=O)[nH]c(N)nc21 | > 100 µM | > 100 µM | > 100 µM | > 100 µM | > 100 µM | > 100 µM | > 100 µM | > 100 µM | > 100 µM | > 100 µM
6 | Cn1c(=S)[nH]c(N)c(Cc2ccccc2)c1=O | 68.4 µM | > 100 µM | > 100 µM | > 100 µM | > 100 µM | > 100 µM | > 100 µM | > 100 µM | > 100 µM | > 100 µM
7 | CN(Cc1cnc2nc(N)nc(N)c2n1)c1ccc(C(=O)NCCCC(=O)O)cc1 | > 100 µM | > 100 µM | > 100 µM | > 100 µM | > 100 µM | > 100 µM | > 100 µM | > 100 µM | > 100 µM | > 100 µM
8 | Nc1ccc(C2SCC(=O)N2NS(=O)(=O)c2cccc(C(=O)O)c2)cc1 (stereo not drawn) | > 100 µM |  | > 100 µM | > 100 µM | > 100 µM | > 100 µM | 55.7 µM | > 100 µM | > 100 µM | > 100 µM
9 | CN1CCN(c2n[nH]c(=O)c3c2nnn3C2CCCCC2)CC1 | > 100 µM | > 100 µM | > 100 µM | > 100 µM | > 100 µM | > 100 µM | > 100 µM | > 100 µM | > 100 µM | > 100 µM
10 | CCOC(=O)CC1Nc2ccccc2C12CCc1c([nH]c3ccccc13)C2C(=O)OCC (stereo not drawn) | 61.7 µM | > 100 µM | > 100 µM | > 100 µM | > 100 µM | 22.5 µM | 51.6 µM | > 100 µM | > 100 µM | 53.8 µM
11 | COc1ccc(CNc2nc3cc(C(F)(F)F)ccc3nc2C(=O)O)cc1 | > 100 µM | > 100 µM | > 100 µM | 56.1 µM | > 100 µM | > 100 µM |  | 62.6 µM | 32.1 µM | 
